# From patent US9253997B2, “Alkylamine derivative” (AJINOMOTO CO., INC., priority 2010, dated 2016)
# How the values were obtained:
# large intestine loop = test: Water absorption action using rat colon loop technique; assay type: in vivo; conditions: male SD (IGS) rat colon loop, PGE2 4 μg/ml/kg i.p., compound in Tyrode's solution injected into loop, 1 hour; FIGS. 5-8
# Description: (Method) Appendix and large intestine were isolated from a male SD (IGS) rat under pentobarbital anesthesia, which were ligated 5 cm below the appendix to prepare a large intestine loop. Immediately after loop preparation, PGE2 (4 μg/ml/kg, SIGMA) was intraperitoneally administered. Thirty minutes later, 2 ml of Tyrode's solution (NaCl 136.9 mM, KCl 2.7 mM, CaCl2.2H2O 1.8 mM, MgCl2.6H2O 1.04 mM, NaH2PO4.2H2O 0.04 mM, NaH2PO4.2H2O 0.04 mM, Glucose 5.55 mM, NaHCO3 11.9 mM) was injected into the prepared loop. An hour later, weight of the loop, weight of the loop after removing the fluid therefrom and the loop area were measured to calculate the weight of liquid remaining in the loop per unit area.
# The above-described Compounds Nos. 1-3 and Compound No. 4 (the compound described in Example 47) were used as the test compounds while the agents were dissolved in Tyrode's solution. Remaining liquid measure per unit area (g/cm^2)=(weight of loop−weight of loop after removing fluid therefrom)/loop area.
# Water absorption was assessed by calculating water regulating effect (%) according to the following formula. Water regulating effect (%)=100−(remaining liquid measure per unit area obtained with agent−average remaining liquid measure per base unit area)/(remaining liquid measure per unit area obtained with vehicle−average remaining liquid measure per base unit area)×100.
# serum iPTH = test: Effect of decreasing iPTH in rat by single dose of intravenous administration; assay type: in vivo; conditions: male SD (IGS) rat, 0.1 mg/kg, compared with cinacalcet
# Description: (Method) A single dose was given to male SD (IGS) rat under pentobarbital anesthesia from a tail vein to examine the transition of serum iPTH and serum Ca concentration. Blood was taken before the administration and 5, 15, 30 and 60 minutes after the administration.
# Compound No. 1 (the compound described in Example 6) was dissolved in physiological saline. Meanwhile, cinacalcet as a control substance was dissolved in PEG400: Saline=1:1 solution.
# [1] = tested on: NSAID-induced small intestine inflammation; test: Effect against NSAID-induced small intestine inflammation; assay type: in vivo, rat; conditions: 30 minutes before loxoprofen 60 mg/kg oral, 24 hours
# Description: (Method) To a non-fasting rat, Compound No. 1 or 2 (the compound described in Example 14) (10 mg/kg) or Compound No. 3 (the compound described in Example 48) (3, 10 or 30 mg/kg) was orally administered. After 30 minutes, loxoprofen (60 mg/kg) was orally administered and the rat was left for 24 hours. Thirty minutes before the autopsy, 1 ml of 1% (w/w) Evansblue dye was intravenously administered to the rat. The small intestine (from duodenum to ileum) of the animal euthanized under deep ether anesthesia was isolated and immersed in 2% formalin for 10 minutes to fix the small intestine from the serosa side. The small intestine was dissected from the opposite side of the mesentery to measure the injury area (mm^2) thereof under a 10× dissecting microscope. T-test or Dunnett's test was employed as the statistical test where p<0.05 was considered to indicate significant difference.
# human CaSR = human CaSR (Homo sapiens (Human), UniProt P41180); test: Assessment of CaSR agonistic activity (FLIPR Ca2+ fluorescence); assay type: cell-based; conditions: 293E cells transfected with hCaSR/pcDNA3.1, Calcium 4 Assay Kit, 1.5 mM CaCl2 assay buffer
# Sequence of human CaSR (P41180 20-1078): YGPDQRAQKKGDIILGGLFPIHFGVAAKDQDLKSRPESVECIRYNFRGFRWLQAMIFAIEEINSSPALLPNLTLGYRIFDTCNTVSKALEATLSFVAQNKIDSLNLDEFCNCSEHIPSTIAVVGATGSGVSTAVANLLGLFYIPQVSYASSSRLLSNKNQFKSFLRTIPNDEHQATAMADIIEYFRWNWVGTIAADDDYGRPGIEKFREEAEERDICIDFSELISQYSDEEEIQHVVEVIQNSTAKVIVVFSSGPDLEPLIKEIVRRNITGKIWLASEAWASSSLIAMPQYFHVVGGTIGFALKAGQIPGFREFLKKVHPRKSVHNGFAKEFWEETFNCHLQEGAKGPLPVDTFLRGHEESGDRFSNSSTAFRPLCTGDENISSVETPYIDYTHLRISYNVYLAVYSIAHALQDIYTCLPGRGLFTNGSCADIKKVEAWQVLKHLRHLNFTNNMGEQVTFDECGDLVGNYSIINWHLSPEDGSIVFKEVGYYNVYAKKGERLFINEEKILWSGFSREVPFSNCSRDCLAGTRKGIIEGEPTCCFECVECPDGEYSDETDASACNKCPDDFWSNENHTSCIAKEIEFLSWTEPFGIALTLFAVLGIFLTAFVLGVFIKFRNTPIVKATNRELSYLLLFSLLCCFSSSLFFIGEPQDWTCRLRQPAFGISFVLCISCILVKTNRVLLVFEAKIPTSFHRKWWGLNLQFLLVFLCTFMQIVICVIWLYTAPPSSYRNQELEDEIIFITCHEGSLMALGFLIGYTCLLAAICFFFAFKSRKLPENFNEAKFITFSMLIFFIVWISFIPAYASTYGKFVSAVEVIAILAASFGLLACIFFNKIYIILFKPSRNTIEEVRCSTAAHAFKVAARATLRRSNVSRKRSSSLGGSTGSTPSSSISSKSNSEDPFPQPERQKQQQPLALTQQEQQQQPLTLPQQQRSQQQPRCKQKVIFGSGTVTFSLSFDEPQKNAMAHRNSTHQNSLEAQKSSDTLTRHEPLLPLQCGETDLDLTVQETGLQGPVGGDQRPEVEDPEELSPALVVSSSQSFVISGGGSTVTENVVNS
# Description: CaSR gene was prepared according to the method described in Example 1 of WO07/55393. The resulting recombinant plasmid was used to generate human CaSR-expressing plasmid hCaSR/pcDNA3.1.
# 293E cells (EBNA1-expressing IIEK293 cells, ATCC No. CRL-10852) were cultured in DMEM ([…] Glucose-containing Dulbecco's modified Eagle medium, Nacalai Tesque) containing 10% bovine fetal serum in the presence of 250 μg/ml of G418. The cells were seeded on a 10 cm-diameter petri dish at 1.8×10^6 cells/15 ml, and left to stand in a CO2 incubator (5% CO2, 37° C.) for 24 hours. Thereafter, human CaSR expression plasmid hCaSR/pcDNA3.1 was transfected with transfection reagent Mirus Trans IT 293 (Takara Bio). Following static culture in a CO2 incubator for 24 hours, the cells were harvested with 10% bovine fetal serum-containing DMEM and seeded on a poly-D-lysine coat 384 well plate (Falcon) at 15,000 cells/well. Following static culture in a CO2 incubator for 24 hours, the medium was removed and the resultant was added with 50 μl/well of Ca^2+ fluorescent indicator Calcium 4 Assay Kit (Molecular Devices) dissolved in an assay buffer (146 mM NaCl, 5 mM KCl, 1 mM MgSO4, 1 mg/ml Glucose, 20 mM HEPES (PH 7.2), 1.5 mM CaCl2), and left to stand at 37° C. for an hour and then at room temperature for 30 minutes to allow intake of the indicator. The above-mentioned 384-well plate was transferred to FLIPR (Molecular Devices) and added with 12.5 μl/well of a compound dissolved in a 0.1% BSA-containing assay buffer to measure 3-minute change in the fluorescence intensity.
# The difference between maximum and minimum fluorescence intensities before and after compound addition (RFU (Max-Min)) was determined by FLIPR automatic calculation. An activity rate was calculated where RFU (Max-Min) upon addition of a compound at a maximum concentration was defined 100% and RFU (Max-Min) upon addition of DMSO as a substitute for the compound at the same concentration was defined 0%. […]
# [2] = non-fasting rat, 10 mg/kg oral, FIG. 3
Compound,EC50 (human CaSR) [µM],water absorption (water regulating effect) (large intestine loop),"injury area of small intestine [1, 2]",also measured
"Cc1c(Cl)cc(S(=O)(=O)O)cc1NC(=S)NC[C@H](N)C(=O)O [Example 47, (2S)-2-amino-3-{[(3-chloro-2-methyl-5-sulfophenyl)carbamothioyl]amino}propanoic acid]",,promoted water absorption in a dose-depending manner,,
"N[C@@H](CNC(=O)Nc1cc(Cl)cc(S(=O)(=O)O)c1O)C(=O)O [Example 6, (2S)-2-amino-3-{[(5-chloro-2-hydroxy-3-sulfophenyl)carbamoyl]amino}propanoic acid]",,promoted water absorption in a dose-depending manner,significantly improved the injury area,decreasing serum iPTH (serum iPTH; FIG. 1): almost the same effect as cinacalcet; decreasing serum Ca (serum iPTH; FIG. 2): almost the same effect as cinacalcet
"Cc1c(Cl)cc(NC(=S)NC[C@H](N)C(=O)O)cc1S(=O)(=O)O [Example 48, (2S)-2-amino-3-{[(3-chloro-4-methyl-5-sulfophenyl)carbamothioyl]amino}propanoic acid]",,promoted water absorption in a dose-depending manner,,"injury area of small intestine ([1]; non-fasting rat, 3, 10 or 30 mg/kg oral, FIG. 4): showed a tendency to improve the injury area"

# Further lines, with some results ahead:
EC50 (human CaSR) [µM],Compound,water absorption (water regulating effect) (large intestine loop),"injury area of small intestine [1, 2]",also measured
0.003,"Cc1c(Cl)cc(S(=O)(=O)O)cc1NC(=O)NC[C@H](N)C(=O)O [Example 14, (2S)-2-amino-3-{[(3-chloro-2-methyl-5-sulfophenyl)carbamoyl]amino}propanoic acid]",promoted water absorption in a dose-depending manner,showed a tendency to improve the injury area,
3.4,"N[C@@H](CCC(=O)Nc1cc(Cl)cc(S(=O)(=O)O)c1O)C(=O)NC1CCCCCC1 [Example 60, 3-[(4S)4-amino-4-(cycloheptylcarbamoyl)butanamide]-5-chloro-2-hydroxybenzene-1-sulfonic acid]",,,
3.1,"N[C@@H](CCC(=O)Nc1cc(Cl)cc(S(=O)(=O)O)c1O)C(=O)N1CCOCC1 [Example 58, 3-[(4S)-4-amino-5-(morpholine-4-yl)-5-oxopentanamide]-5-chloro-2-hydroxybenzene-1-sulfonic acid]",,,
